Results reported in patent US7803930B2, “Antisense modulation of apolipoprotein B-expression” (Isis Pharmaceuticals, Inc., priority 2002, dated 2010).
In the oligonucleotide strings, read from the 5' end, every base follows the letter of its sugar. An asterisk marks phosphorothioate; unmarked linkages are phosphodiester. Other units and linkages are bracketed, terminal groups are in braces. A string of capitals states the bases alone. e = 2'-O-(2-methoxyethyl) (MOE); [5mC] = 5-methylcytosine; d = 2'-deoxy (DNA)

These substances were tested on human apolipoprotein B mRNA (assay: Inhibition of human apolipoprotein B mRNA levels in HepG2 cells, quantitative real-time PCR). Conditions: HepG2 cells; human apolipoprotein B mRNA; oligonucleotides targeting genomic sequence SEQ ID NO 334; averages from two experiments.
Type: cell-based
In short: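 HepG2 cells at 80% confluency were transfected with antisense oligonucleotide using 3.75 μg/mL Lipofectin in Opti-MEM for 4-7 h and harvested 16-24 h after treatment. Apolipoprotein B mRNA was measured by real-time RT-PCR and normalized to GAPDH or RiboGreen total RNA. Percent inhibition came from untreated-control standard curves.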
With “301049 (eT*e[5mC]*eT*eG*eT*dA*dA*dG*dA*d[5mC]*dA*dG*dG*dA*dG*eA*eA*eA*eG*eA; antisense) [compound 301049]” the “% INHIB” value was 41%. With “301050 (eA*eT*eT*eT*e[5mC]*d[5mC]*dT*d[5mC]*dT*dT*d[5mC]*dT*dG*dT*dA*eA*eG*eA*e[5mC]*eA; antisense) [compound 301050]” the “% INHIB” value was 22%. “301051 (eG*eA*eT*eG*e[5mC]*d[5mC]*dT*dT*dA*d[5mC]*dT*dT*dG*dG*dA*e[5mC]*eA*eG*eA*e[5mC]; antisense) [compound 301051]” was tested, and the “% INHIB” value was 27%. For “301052 (eA*eG*eA*eA*eA*dT*dA*dG*d[5mC]*dT*d[5mC]*dT*d[5mC]*d[5mC]*d[5mC]*eA*eA*eG*eG*eA; antisense) [compound 301052]”, the “% INHIB” value was 13%. With “301053 (eG*eT*e[5mC]*eG*e[5mC]*dA*dT*d[5mC]*dT*dT*d[5mC]*dT*dA*dA*d[5mC]*eG*eT*eG*eG*eG; antisense) [compound 301053]” the “% INHIB” value was 45%. “301054 (eT*e[5mC]*e[5mC]*eT*e[5mC]*d[5mC]*dA*dT*dA*d[5mC]*d[5mC]*dT*dT*dG*d[5mC]*eA*eG*eT*eT*eG; antisense) [compound 301054]” was tested, and the “% INHIB” value was 0%. In the case of “301055 (eT*eG*eG*e[5mC]*eT*d[5mC]*dA*dT*dG*dT*d[5mC]*dT*dA*d[5mC]*d[5mC]*eA*eT*eA*eT*eT; antisense) [compound 301055]”, the “% INHIB” value is reported as 49%. “301056 (e[5mC]*eA*eG*eT*eT*dG*dA*dA*dA*dT*dG*d[5mC]*dA*dG*d[5mC]*eT*eA*eA*eT*eG; antisense) [compound 301056]” was tested, and the “% INHIB” value was 35%. “301057 (eT*eG*e[5mC]*eA*eG*dA*d[5mC]*dT*dA*dG*dG*dA*dG*dT*dG*eA*eA*eA*eG*eT; antisense) [compound 301057]” was tested, and the “% INHIB” value was 30%. For “301058 (eA*eG*eG*eA*eG*dG*dA*dT*dG*dT*d[5mC]*d[5mC]*dT*dT*dT*eT*eA*eT*eT*eG; antisense) [compound 301058]”, the “% INHIB” value was 27%. “301059 (eA*eT*e[5mC]*eA*eG*dA*dG*d[5mC]*dA*d[5mC]*d[5mC]*dA*dA*dA*dG*eG*eG*eA*eA*eT; antisense) [compound 301059]” was tested, and the “% INHIB” value was 12%. “301060 (e[5mC]*e[5mC]*eA*eG*e[5mC]*dT*d[5mC]*dA*dA*d[5mC]*d[5mC]*dT*dG*dA*dG*eA*eA*eT*eT*e[5mC]; antisense) [compound 301060]” was tested, and the “% INHIB” value was 17%. For “301061 (e[5mC]*eA*eT*eG*eA*d[5mC]*dT*dT*dA*d[5mC]*d[5mC]*dT*dG*dG*dA*e[5mC]*eA*eT*eG*eG; antisense) [compound 301061]”, the “% INHIB” value was 52%. “301062 (e[5mC]*e[5mC]*eT*e[5mC]*eA*dG*d[5mC]*dG*dG*dA*d[5mC]*dA*d[5mC]*dA*d[5mC]*eA*e[5mC]*eA*e[5mC]*eA; antisense) [compound 301062]” was tested, and the “% INHIB” value was 21%. For “301063 (eG*eT*e[5mC]*eA*e[5mC]*dA*dT*d[5mC]*d[5mC]*dG*dT*dG*d[5mC]*d[5mC]*dT*eG*eG*eT*eG*e[5mC]; antisense) [compound 301063]”, the “% INHIB” value was 41%. “301064 (e[5mC]*eA*eG*eT*eG*d[5mC]*d[5mC]*dT*d[5mC]*dT*dG*dG*dG*dA*d[5mC]*e[5mC]*e[5mC]*e[5mC]*eA*e[5mC]; antisense) [compound 301064]” was tested, and the “% INHIB” value was 60%. In the case of “301065 (eA*eG*e[5mC]*eT*eG*d[5mC]*dA*dG*dT*dG*dG*d[5mC]*d[5mC]*dG*dA*eT*e[5mC]*eA*eG*e[5mC]; antisense) [compound 301065]”, the “% INHIB” value is reported as 50%. With “301066 (eG*eA*e[5mC]*e[5mC]*eT*d[5mC]*d[5mC]*d[5mC]*d[5mC]*dA*dG*d[5mC]*d[5mC]*dA*d[5mC]*eG*eT*eG*eG*eA; antisense) [compound 301066]” the “% INHIB” value was 61%. With “301067 (eT*e[5mC]*eT*eG*eA*dT*d[5mC]*dA*d[5mC]*d[5mC]*dA*dT*dA*d[5mC]*dA*eT*eT*eA*e[5mC]*eA; antisense) [compound 301067]” the “% INHIB” value was 45%. In the case of “301068 (eA*eT*eT*eT*e[5mC]*d[5mC]*d[5mC]*dA*d[5mC]*dT*dG*dG*dG*dT*dA*e[5mC]*eT*e[5mC]*eT*e[5mC]; antisense) [compound 301068]”, the “% INHIB” value is reported as 44%. In the case of “301069 (eG*eG*e[5mC]*eT*eG*dA*dA*dG*d[5mC]*d[5mC]*d[5mC]*dA*dT*dG*d[5mC]*eT*eG*eA*e[5mC]*eT; antisense) [compound 301069]”, the “% INHIB” value is reported as 44%. In the case of “301070 (eG*eT*eT*eG*eG*dA*d[5mC]*dA*dG*dT*d[5mC]*dA*dT*dT*d[5mC]*eT*eT*eT*eT*eG; antisense) [compound 301070]”, the “% INHIB” value is reported as 38%. “301071 (e[5mC]*eA*e[5mC]*eT*eT*dG*dT*dT*dG*dG*dA*d[5mC]*dA*dG*dT*e[5mC]*eA*eT*eT*e[5mC]; antisense) [compound 301071]” was tested, and the “% INHIB” value was 48%. With “301072 (eA*eT*eT*eT*eT*dA*dA*dA*dT*dT*dA*d[5mC]*dA*dG*dT*eA*eG*eA*eT*eA; antisense) [compound 301072]” the “% INHIB” value was 43%. With “301073 (e[5mC]*eT*eG*eT*eT*d[5mC]*dT*d[5mC]*d[5mC]*dA*d[5mC]*d[5mC]*d[5mC]*dA*dT*eA*eT*e[5mC]*eA*eG; antisense) [compound 301073]” the “% INHIB” value was 37%. In the case of “301074 (eG*eA*eG*e[5mC]*eT*d[5mC]*dA*dT*dA*d[5mC]*d[5mC]*dT*dG*dT*d[5mC]*e[5mC]*e[5mC]*eA*eG*eA; antisense) [compound 301074]”, the “% INHIB” value is reported as 75%. In the case of “301075 (eT*eT*e[5mC]*eA*eA*dG*dG*dG*d[5mC]*d[5mC]*dA*d[5mC]*dT*dG*d[5mC]*eT*eA*eT*e[5mC]*eA; antisense) [compound 301075]”, the “% INHIB” value is reported as 52%. With “301076 (e[5mC]*e[5mC]*eA*eG*eT*dA*dT*dT*dT*d[5mC]*dA*d[5mC]*dG*d[5mC]*d[5mC]*eA*eA*eT*e[5mC]*e[5mC]; antisense) [compound 301076]” the “% INHIB” value was 36%. With “301077 (eG*eG*e[5mC]*eA*eG*dG*dA*dG*dG*dA*dA*d[5mC]*d[5mC]*dT*d[5mC]*eG*eG*eG*e[5mC]*eA; antisense) [compound 301077]” the “% INHIB” value was 55%. For “301078 (eT*eT*eT*eT*eA*dA*dA*dA*dT*dT*dA*dG*dA*d[5mC]*d[5mC]*e[5mC]*eA*eA*e[5mC]*e[5mC]; antisense) [compound 301078]”, the “% INHIB” value was 22%. With “301079 (eT*eG*eA*e[5mC]*eT*dG*dT*dT*dT*dT*dA*dA*dA*dA*dT*eT*eA*eG*eA*e[5mC]; antisense) [compound 301079]” the “% INHIB” value was 20%. With “301080 (e[5mC]*e[5mC]*e[5mC]*eA*eG*d[5mC]*dA*dA*dA*d[5mC]*dA*d[5mC]*dA*dG*dG*eT*eG*eA*eA*eG; antisense) [compound 301080]” the “% INHIB” value was 25%. For “301081 (eG*eA*eG*eT*eG*dT*dG*dG*dT*d[5mC]*dT*dT*dG*d[5mC]*dT*eA*eG*eT*eG*e[5mC]; antisense) [compound 301081]”, the “% INHIB” value was 46%. For “301082 (antisense e[5mC]*eT*eA*eT*eG*d[5mC]*dA*dG*dA*dG*dT*dG*dT*dG*dG*eT*e[5mC]*eT*eT*eG) [compound 301082]”, the “% INHIB” value was 41%. For “301083 (antisense eA*eG*eA*eA*eG*dA*dT*dG*d[5mC]*dA*dA*d[5mC]*d[5mC]*dA*d[5mC]*eA*eT*eG*eT*eA) [compound 301083]”, the “% INHIB” value was 29%. “301084 (antisense eA*e[5mC]*eA*e[5mC]*eG*dG*dT*dA*dT*d[5mC]*d[5mC]*dT*dA*dT*dG*eG*eA*eG*eG*eA) [compound 301084]” was tested, and the “% INHIB” value was 49%.
